Results reported in ChEMBL document CHEMBL3885881, “DrugMatrix”.

Species on record: Rattus norvegicus
Experiment: DrugMatrix - Regimen: Daily Repeat
Type: toxicity, organism-based, Sprague-Dawley
Design: regimen Daily Repeat, gender Male, age 6-8 weeks
Conditions: in vivo, iv, vehicle 100 % SALINE; for ABSOLUTE BASOPHIL / ABSOLUTE EOSINOPHIL / ABSOLUTE LYMPHOCYTE / ABSOLUTE MONOCYTE / ABSOLUTE SEGMENTED NEUTROPHIL / BASOPHIL / EOSINOPHIL / ERYTHROCYTE COUNT / HEMATOCRIT / HEMOGLOBIN / LEUKOCYTE COUNT / LYMPHOCYTE / MEAN CORPUSCULAR HEMOGLOBIN / MEAN CORPUSCULAR HEMOGLOBIN CONCENTRATION / MEAN CORPUSCULAR VOLUME / MONOCYTE / NEUTROPHIL / NUCLEATED RED BLOOD CELLS: tissue Blood; for ALANINE AMINOTRANSFERASE / ALKALINE PHOSPHATASE / BLOOD UREA NITROGEN / CARBON DIOXIDE / CHOLESTEROL / CREATINE PHOSPHOKINASE / CREATININE / GLUCOSE / LACTATE DEHYDROGENASE / LIPASE / SODIUM / TOTAL BILIRUBIN / TOTAL PROTEIN / URIC ACID / ASPARTATE AMINOTRANSFERASE: tissue Plasma
[1] = 0 mg/kg, 72 h, dose level Control, time 3 day
[2] = 0 mg/kg, 120 h, dose level Control, time 5 day
[3] = 3 mg/kg, 72 h, dose level High, time 3 day
[4] = 3 mg/kg, 120 h, dose level High, time 5 day
[5] = […], 72 h, dose 0.65 mg/Kg, dose level Low, time 3 day
[6] = […], 120 h, dose 0.65 mg/Kg, dose level Low, time 5 day

## COc1cccc2c1C(=O)c1c(O)c3c(c(O)c1C2=O)C[C@@](O)(C(=O)CO)C[C@@H]3O[C@H]1C[C@H](N)[C@H](O)[C@H](C)O1 [DOXORUBICIN]
[1]
  ABSOLUTE BASOPHIL: 0 CELLS/uL
  ABSOLUTE EOSINOPHIL: 0 CELLS/uL
  ABSOLUTE LYMPHOCYTE: 7855.5 CELLS/uL
  ABSOLUTE MONOCYTE: 36.17 CELLS/uL
  ABSOLUTE SEGMENTED NEUTROPHIL: 575 CELLS/uL
  BASOPHIL: 0%
  EOSINOPHIL: 0%
  ERYTHROCYTE COUNT: 5.14 x10E6/uL
  HEMATOCRIT: 33.22%
  HEMOGLOBIN: 12.97 G/DL
  LEUKOCYTE COUNT: 8.47 x10E3/uL
  LYMPHOCYTE: 93.17%
  MEAN CORPUSCULAR HEMOGLOBIN: 25.28 pg
  MEAN CORPUSCULAR HEMOGLOBIN CONCENTRATION: 39.05 G/DL
  MEAN CORPUSCULAR VOLUME: 64.75 fL
  MONOCYTE: 0.33%
  NEUTROPHIL: 6.5%
  NUCLEATED RED BLOOD CELLS: 0 /100WBC
  ALANINE AMINOTRANSFERASE: 61.67 u/L
  ALKALINE PHOSPHATASE: 292.33 u/L
  BLOOD UREA NITROGEN: 11 mg/dL
  CARBON DIOXIDE: 34.67 mmol/L
  CHOLESTEROL: 71.17 mg/dL
  CREATINE PHOSPHOKINASE: 554.5 u/L
  CREATININE: 0.31 mg/dL
  GLUCOSE: 151 mg/dL
  LACTATE DEHYDROGENASE: 88.67 u/L
  LIPASE: 18.83 u/L
  SODIUM: 144.57 MEQ/L
  TOTAL BILIRUBIN: 0.17 mg/dL
  TOTAL PROTEIN: 5.8 G/DL
  URIC ACID: 0.52 mg/dL
[2]
  ABSOLUTE BASOPHIL: 0 CELLS/uL
  ABSOLUTE EOSINOPHIL: 53.33 CELLS/uL
  ABSOLUTE LYMPHOCYTE: 7739.83 CELLS/uL
  ABSOLUTE MONOCYTE: 74.83 CELLS/uL
  ABSOLUTE SEGMENTED NEUTROPHIL: 832 CELLS/uL
  BASOPHIL: 0%
  EOSINOPHIL: 0.67%
  ERYTHROCYTE COUNT: 5.55 x10E6/uL
  HEMATOCRIT: 34.77%
  LEUKOCYTE COUNT: 8.7 x10E3/uL
  LYMPHOCYTE: 89.17%
  MEAN CORPUSCULAR HEMOGLOBIN: 24.6 pg
  MEAN CORPUSCULAR HEMOGLOBIN CONCENTRATION: 39.2 G/DL
  MEAN CORPUSCULAR VOLUME: 62.78 fL
  MONOCYTE: 0.67%
  NEUTROPHIL: 9.5%
  NUCLEATED RED BLOOD CELLS: 0 /100WBC
  ALANINE AMINOTRANSFERASE: 50 u/L
  ALKALINE PHOSPHATASE: 271.17 u/L
  ASPARTATE AMINOTRANSFERASE: 84.17 u/L
  BLOOD UREA NITROGEN: 13.33 mg/dL
  CARBON DIOXIDE: 27 mmol/L
  CHOLESTEROL: 68 mg/dL
  CREATINE PHOSPHOKINASE: 313.67 u/L
  CREATININE: 0.21 mg/dL
  GLUCOSE: 163 mg/dL
  LACTATE DEHYDROGENASE: 75.67 u/L
  LIPASE: 11.5 u/L
  SODIUM: 143.1 MEQ/L
  TOTAL BILIRUBIN: 0.2 mg/dL
  TOTAL PROTEIN: 6.08 G/DL
  URIC ACID: 0.68 mg/dL
[3]
  ABSOLUTE BASOPHIL: 0 CELLS/uL
  ABSOLUTE EOSINOPHIL: 0 CELLS/uL
  ABSOLUTE LYMPHOCYTE: 2936 CELLS/uL
  ABSOLUTE MONOCYTE: 0 CELLS/uL
  ABSOLUTE SEGMENTED NEUTROPHIL: 230.67 CELLS/uL
  BASOPHIL: 0%
  EOSINOPHIL: 0%
  ERYTHROCYTE COUNT: 5.1 x10E6/uL
  HEMATOCRIT: 32.43%
  HEMOGLOBIN: 12.87 G/DL
  LEUKOCYTE COUNT: 3.17 x10E3/uL
  LYMPHOCYTE: 92.67%
  MEAN CORPUSCULAR HEMOGLOBIN: 25.23 pg
  MEAN CORPUSCULAR HEMOGLOBIN CONCENTRATION: 39.67 G/DL
  MEAN CORPUSCULAR VOLUME: 63.63 fL
  MONOCYTE: 0%
  NEUTROPHIL: 7.33%
  NUCLEATED RED BLOOD CELLS: 0 /100WBC
  ALANINE AMINOTRANSFERASE: 53.33 u/L
  ALKALINE PHOSPHATASE: 266 u/L
  ASPARTATE AMINOTRANSFERASE: 81.33 u/L
  BLOOD UREA NITROGEN: 16.67 mg/dL
  CARBON DIOXIDE: 31.33 mmol/L
  CHOLESTEROL: 79.33 mg/dL
  CREATINE PHOSPHOKINASE: 216.67 u/L
  CREATININE: 0.18 mg/dL
  GLUCOSE: 145 mg/dL
  LACTATE DEHYDROGENASE: 77.67 u/L
  LIPASE: 24 u/L
  SODIUM: 143.8 MEQ/L
  TOTAL BILIRUBIN: 0.1 mg/dL
  TOTAL PROTEIN: 5.87 G/DL
  URIC ACID: 0.5 mg/dL
[4]
  ABSOLUTE BASOPHIL: 0 CELLS/uL
  ABSOLUTE EOSINOPHIL: 17.33 CELLS/uL
  ABSOLUTE LYMPHOCYTE: 1693 CELLS/uL
  ABSOLUTE MONOCYTE: 0 CELLS/uL
  ABSOLUTE SEGMENTED NEUTROPHIL: 589.67 CELLS/uL
  BASOPHIL: 0%
  EOSINOPHIL: 0.67%
  ERYTHROCYTE COUNT: 5.12 x10E6/uL
  HEMATOCRIT: 32.6%
  HEMOGLOBIN: 12.83 G/DL
  LEUKOCYTE COUNT: 2.3 x10E3/uL
  LYMPHOCYTE: 74%
  MEAN CORPUSCULAR HEMOGLOBIN: 25.07 pg
  MEAN CORPUSCULAR HEMOGLOBIN CONCENTRATION: 39.4 G/DL
  MEAN CORPUSCULAR VOLUME: 63.73 fL
  MONOCYTE: 0%
  NEUTROPHIL: 25.33%
  NUCLEATED RED BLOOD CELLS: 0 /100WBC
  ALANINE AMINOTRANSFERASE: 34 u/L
  ALKALINE PHOSPHATASE: 189.67 u/L
  ASPARTATE AMINOTRANSFERASE: 86.33 u/L
  BLOOD UREA NITROGEN: 12.33 mg/dL
  CARBON DIOXIDE: 25.67 mmol/L
  CHOLESTEROL: 95.67 mg/dL
  CREATINE PHOSPHOKINASE: 299.33 u/L
  CREATININE: 0.1 mg/dL
  GLUCOSE: 147.67 mg/dL
  LACTATE DEHYDROGENASE: 73.33 u/L
  LIPASE: 8.33 u/L
  SODIUM: 144.9 MEQ/L
  TOTAL BILIRUBIN: 0.1 mg/dL
  TOTAL PROTEIN: 5.77 G/DL
  URIC ACID: 0.4 mg/dL
[5]
  ABSOLUTE BASOPHIL: 0 CELLS/uL
  ABSOLUTE EOSINOPHIL: 0 CELLS/uL
  ABSOLUTE LYMPHOCYTE: 6184 CELLS/uL
  ABSOLUTE SEGMENTED NEUTROPHIL: 275.33 CELLS/uL
  BASOPHIL: 0%
  EOSINOPHIL: 0%
  ERYTHROCYTE COUNT: 5.13 x10E6/uL
  HEMATOCRIT: 33%
  HEMOGLOBIN: 13.03 G/DL
  LEUKOCYTE COUNT: 6.5 x10E3/uL
  LYMPHOCYTE: 94.67%
  MEAN CORPUSCULAR HEMOGLOBIN: 25.47 pg
  MEAN CORPUSCULAR HEMOGLOBIN CONCENTRATION: 39.5 G/DL
  MEAN CORPUSCULAR VOLUME: 64.47 fL
  MONOCYTE: 0.67%
  NEUTROPHIL: 4.67%
  NUCLEATED RED BLOOD CELLS: 0 /100WBC
  ALANINE AMINOTRANSFERASE: 48.33 u/L
  ALKALINE PHOSPHATASE: 370 u/L
  ASPARTATE AMINOTRANSFERASE: 79.33 u/L
  BLOOD UREA NITROGEN: 12.33 mg/dL
  CARBON DIOXIDE: 30.33 mmol/L
  CHOLESTEROL: 68.33 mg/dL
  CREATINE PHOSPHOKINASE: 280.67 u/L
  CREATININE: 0.29 mg/dL
  GLUCOSE: 179 mg/dL
  LACTATE DEHYDROGENASE: 81.33 u/L
  LIPASE: 10.33 u/L
  SODIUM: 144.23 MEQ/L
  TOTAL BILIRUBIN: 0.1 mg/dL
  TOTAL PROTEIN: 5.93 G/DL
  URIC ACID: 0.87 mg/dL
[6]
  ABSOLUTE BASOPHIL: 0 CELLS/uL
  ABSOLUTE EOSINOPHIL: 49.33 CELLS/uL
  ABSOLUTE LYMPHOCYTE: 5081.33 CELLS/uL
  ABSOLUTE MONOCYTE: 14 CELLS/uL
  ABSOLUTE SEGMENTED NEUTROPHIL: 188.67 CELLS/uL
  BASOPHIL: 0%
  EOSINOPHIL: 1%
  ERYTHROCYTE COUNT: 5.28 x10E6/uL
  HEMATOCRIT: 34.1%
  HEMOGLOBIN: 13.37 G/DL
  LEUKOCYTE COUNT: 5.33 x10E3/uL
  LYMPHOCYTE: 95%
  MEAN CORPUSCULAR HEMOGLOBIN: 25.3 pg
  MEAN CORPUSCULAR HEMOGLOBIN CONCENTRATION: 39.17 G/DL
  MEAN CORPUSCULAR VOLUME: 64.67 fL
  MONOCYTE: 0.33%
  NEUTROPHIL: 3.67%
  NUCLEATED RED BLOOD CELLS: 0 /100WBC
  ALANINE AMINOTRANSFERASE: 34.67 u/L
  ALKALINE PHOSPHATASE: 365.33 u/L
  ASPARTATE AMINOTRANSFERASE: 74.67 u/L
  BLOOD UREA NITROGEN: 14 mg/dL
  CARBON DIOXIDE: 26 mmol/L
  CHOLESTEROL: 68.67 mg/dL
  CREATINE PHOSPHOKINASE: 222 u/L
  CREATININE: 0.14 mg/dL
  GLUCOSE: 156 mg/dL
  LACTATE DEHYDROGENASE: 60 u/L
  LIPASE: 9 u/L
  SODIUM: 145.47 MEQ/L
  TOTAL BILIRUBIN: 0.1 mg/dL
  TOTAL PROTEIN: 5.63 G/DL
  URIC ACID: 0.23 mg/dL
